What was measured:
[1] = system: GLI1 mRNA expression; assay: RT-qPCR GLI1 mRNA expression in Sufu-KO MEFs; assay type: cell-based, mouse; details: for IC50: Mus musculus, Ave ± SEM, read-out: RT-qPCR, IC50 Sufu-KO
Description: (§1) ASZ001 and Sufu-KO cells were seeded in 96-well plates (10,000/well, 100 μL) and incubated overnight under growth conditions. On the second day, ‘growth’ media was removed and replaced by ‘assay’ media (100 μL). On the third day, cells were treated with a serial dilution of drugs or DMSO for 48 h. mRNA expression was determined through Taqman Fast Cells-to-CT Kit (#4399003) per the manufacturer's instructions. In brief, cells were washed with chilled PBS, then mixed with lysis solution containing DNase I and incubated at RT for 5 min. Stop solution was then added to quench the lysis reagents. cDNA was then synthesized through a BioRad MyCycler following addition of reverse transcriptase. Finally, the cDNA was amplified through an ABI 7500 system following addition of Taqman Fast Universal PCR Master Mix and Taqman Gene Expression Primer. Relative gene expression levels were computed by the ΔΔCt method. Values represent mRNA expression relative to DMSO control (set at 1.0). Data were analyzed using GraphPad Prism, and IC50 values are the mean±SEM for at least two separate experiments performed in triplicate. Primers used are as follows: mouse ActB (Mm00607939_s1); mouse GLI1 (Mm00494645_ml); mouse Gli2 (Mm01293117_ml); mouse Ptch1 (Mm00436026_ml); mouse Hhip (Mm00469580_ml).

[2] = system: ASZ001 cells; assay: MTS anti-proliferative assay in ASZ001 cells; assay type: cell-based, murine; details: Mus musculus, ASZ001, Ave ± SEM
Description: Cell viability was assessed by MTS proliferation assay kit (Promega) per manufacturer's protocol. Briefly, 2×10^4 cells were plated in a 96-well plate in 100 μL growth medium to make the cell population at ˜80% confluence. After 24 h, 1 μL drug solution was added to each well. DMSO was used as vehicle compound. After 48 h incubation (37° C., 5% CO2), 20 μL of freshly prepared 3-(4,5-dimethylthiazol-2-yl)-5-(3-carboxymethoxyphenyl)-2-(4-sulfophenyl)-2H-tetrazolium (MTS)/phenazine methosulfate (PMS) solution was added to each well, and the plate was returned to the incubator for 1 h. Absorbance at 490 nm was recorded, and the result was analyzed by GraphPad Prism 5. GI50 values represent mean±SEM for at least two separate experiments performed in triplicate.

[3] = system: GLI1 mRNA expression; assay: RT-qPCR GLI1 mRNA expression in ASZ001 BCC cells; assay type: cell-based, mouse; details: Mus musculus, Ave ± SEM, read-out: RT-qPCR, IC50 ASZ001
Description: as §1

[4] = biological target: T1, GLI1-ZFD (Homo sapiens, UniProt P08151); assay: Microscale thermophoresis (MST) binding to GLI1-ZFD; details: for binding to GLI1 (in words): MST binding assay
T1 construct: GLI1-ZFD Expression and Purification; made in house
T1 sequence (P08151 234-388 limits assumed): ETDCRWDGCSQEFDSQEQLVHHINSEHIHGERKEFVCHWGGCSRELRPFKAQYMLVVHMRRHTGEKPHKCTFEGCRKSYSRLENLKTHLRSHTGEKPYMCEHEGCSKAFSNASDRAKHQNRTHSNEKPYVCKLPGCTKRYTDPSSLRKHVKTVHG
Description: The protein expression and purification experiments followed the previous reported procedures [C. A. Maschinot, et al., Synthesis and evaluation of third generation vitamin D3 analogues as inhibitors of hedgehog signaling. Euro. J. Med. Chem. 162 (2019) 495-506].
GLI1 protein labeling was performed through the Monolith Protein Labeling Kit RED-NHS 2nd Generation (Nanotemper #MO-LO11) per the manufacturer's instructions. Briefly, GLI1 (100 μg, 1 mg/mL) underwent buffer exchange to remove incompatible ingredients like Tris or DTT. Proteins in the Labeling Buffer were incubated with freshly prepared dye (˜3-fold excess of dye) for 30 min at RT in the dark. Unreacted ‘free’ dye was removed by a gel-filtration column. Protein concentration and degree-of-labeling were calculated by measuring absorption at 280 nm and 650 nm. For each assay, 200 nM GLI1 in MST Buffer was mixed with compound dilution in DMSO (DMSO<5%, v/v). The mixture was then loaded to a capillary and the thermophoresis was subsequently determined through Monolith NT.115 station. Results were analyzed by MO.Affinity Analysis software and visualized by Graphpad Prism. MST Buffer: 50 mM HEPES, pH 8.3, 100 mM NaCl.

Q: Which results are given for `C#CCCOc1c(C(Nc2ccccn2)c2ccc(N(CC)CC)cc2)ccc2ccc(C)nc12` (stereo not shown) [Compound 23, N-((4-Diethylaminophenyl)(8-(but-3-yn-1-yloxy)-2-methylquinolin-7-yl)methyl)pyridin-2-amine]?
A: IC50 ([1]; Table 5, GLI1 mRNA): > 25 µM; GI50 ([2]; Table 5, 48 h): > 100 µM; IC50 ([3]; ASZ001, Table 5, GLI1 mRNA): 1.9 ± 0.5 µM

Q: Which results are given for `Cc1ccc2ccc(C(Nc3ccccn3)c3ccc(N)cc3)c(O)c2n1` (stereo not shown) [Compound 41, 7-((4-Aminophenyl)(pyridin-2-ylamino)methyl)-2-methylquinolin-8-ol]?
A: IC50 ([1]; Table 7, GLI1 mRNA): 3.5 ± 1 µM; GI50 ([2]; Table 7, 48 h): > 100 µM; IC50 ([3]; ASZ001, Table 7, GLI1 mRNA): 9.8 ± 1.3 µM

Q: For `CCN(CC)c1ccc(C(Nc2ccccn2)c2ccc3ccc(C)nc3c2OC(C)C)cc1` (stereo not shown) [Compound 21, N-((4-Diethylaminophenyl)(8-isopropoxy-2-methylquinolin-7-yl)methyl)pyridin-2-amine], which IC50 ([1]; Table 5, GLI1 mRNA) is on record?
A: > 25 µM

Q: And the GI50 ([2]; Table 5, 48 h)?
A: > 100 µM

Q: And the IC50 ([3]; ASZ001, Table 5, GLI1 mRNA)?
A: 0.84 ± 0.06 µM

Q: Which IC50 ([1]; Table 7, GLI1 mRNA) does the source give for `Cc1ccc2ccc(C(Nc3ccccn3)c3cccc(F)c3)c(O)c2n1` (stereo not shown) [Compound 37, 7-((3-Fluorophenyl)(pyridin-2-ylamino)methyl)-2-methylquinolin-8-ol] here?
A: 5.3 ± 1.3 µM

Q: What about the GI50 ([2]; Table 7, 48 h) of the same compound?
A: 33.1 ± 9.1 µM

Q: What about the IC50 ([3]; ASZ001, Table 7, GLI1 mRNA) of the same compound?
A: 19.2 ± 5.5 µM

Q: What does the source list for `Cc1ccc2ccc(C(Nc3ccccn3)c3ccc(-n4ccnc4C)cc3)c(O)c2n1` (stereo not shown) [Compound 51, 7-((4-(2-Methyl-1H-imidazol-1-yl)phenyl)(pyridin-2-ylamino)methyl)-2-methylquinolin-8-ol]?
A: IC50 ([1]; Table 7, GLI1 mRNA): 13.6 ± 3.5 µM; GI50 ([2]; Table 7, 48 h): > 100 µM; IC50 ([3]; ASZ001, Table 7, GLI1 mRNA): 5.3 ± 1.2 µM

Q: What does the source list for `CCN(CC)c1ccc(C(Nc2ccccn2)c2cc(C)c3ccc(C)nc3c2O)cc1` (stereo not shown) [Compound 16, 7-((4-Diethylaminophenyl)(pyridin-2-ylamino)methyl)-2,5-dimethylquinolin-8-ol]?
A: IC50 ([1]; Table 5, GLI1 mRNA): 0.98 ± 0.21 µM; GI50 ([2]; Table 5, 48 h): 15.7 ± 2.8 µM; IC50 ([3]; ASZ001, Table 5, GLI1 mRNA): 1.6 ± 0.7 µM

Q: Which results are given for `Cc1ccc2c(C)cc(C(C)Nc3ccccn3)c(O)c2n1` (stereo not shown) [Compound 32, 2,5-Dimethyl-7-(1-(pyridin-2-ylamino)ethyl)quinolin-8-ol]?
A: IC50 ([1]; Table 7, GLI1 mRNA): 4.8 ± 1.4 µM; GI50 ([2]; Table 7, 48 h): 29.8 ± 4 µM; IC50 ([3]; ASZ001, Table 7, GLI1 mRNA): 5.3 ± 1.7 µM

Q: For `CCN(CC)c1ccc(C(Nc2ccncc2)c2ccc3ccc(C)nc3c2O)cc1` (stereo not shown) [Compound 31, 7-((4-(diethylamino)phenyl)(pyridin-4-ylamino)methyl)-2-methylquinolin-8-ol], which IC50 ([1]; Table 6, GLI1 mRNA) is on record?
A: > 25 µM

Q: What about the GI50 ([2]; Table 6, 48 h) of the same compound?
A: > 100 µM

Q: What about the IC50 ([3]; ASZ001, Table 6, GLI1 mRNA) of the same compound?
A: 21.4 ± 6.7 µM

Q: With `CCN(CC)c1ccccc1C(Nc1ccccn1)c1ccc2ccc(C)nc2c1O` (stereo not shown) [Compound 35, 7-((2-Diethylaminophenyl)(pyridin-2-ylamino)methyl)-2-methylquinolin-8-ol] as the compound, how does the IC50 ([1]; Table 7, GLI1 mRNA) read?
A: 9 ± 2.2 µM

Q: What about the “binding to GLI1 (in words)” value [4] of the same compound?
A: do not bind GLI1

Q: What about the Kd ([4]; Table 7, Ave ± SEM) of the same compound?
A: > 125 µM

Q: What about the GI50 ([2]; Table 7, 48 h) of the same compound?
A: 29.3 ± 4.9 µM

Q: And the IC50 ([3]; ASZ001, Table 7, GLI1 mRNA)?
A: 15.8 ± 6.3 µM

Q: For `CCN(CC)c1ccc(C(Nc2ccccn2)c2ccc3ccc(C)nc3c2OC2CCCC2)cc1` (stereo not shown) [Compound 22, N-((4-Diethylaminophenyl)(8-cyclopentyloxy-2-methylquinolin-7-yl)methyl)pyridin-2-amine], which “anti-GLI1 activity in Sufu-KO cells (in words)” value [1] is on record?
A: inactive

Q: And the IC50 ([1]; Table 5, GLI1 mRNA)?
A: > 25 µM

Q: What about the “binding to GLI1 (in words)” value [4] of the same compound?
A: did not bind to GLI1

Q: What about the GI50 ([2]; Table 5, 48 h) of the same compound?
A: > 100 µM

Q: What about the IC50 ([3]; ASZ001, Table 5, GLI1 mRNA) of the same compound?
A: 0.54 µM

Q: With `COc1c(C(Nc2ccccn2)c2ccc(N3CCCC3=O)cc2)ccc2ccc(C)nc12` (stereo not shown) [Compound 53, 1-(4-((8-Methoxy-2-methylquinolin-7-yl)(pyridin-2-ylamino)methyl)phenyl)pyrrolidin-2-one] as the compound, how does the IC50 ([1]; Table 7, GLI1 mRNA) read?
A: > 25 µM

Q: And the GI50 ([2]; Table 7, 48 h)?
A: 42.9 ± 12.2 µM

Q: What about the IC50 ([3]; ASZ001, Table 7, GLI1 mRNA) of the same compound?
A: 0.77 ± 0.03 µM

— patent publication US20240299400A1, “Transcription Factor GLI1 Inhibitors and Uses Thereof” (University of Connecticut, priority 2023, published 2024)
